Assays:
[1] = test system: Wnt ligand-induced signaling in HEK293 cells; assay: Wnt-responsive Super-TOpFlash (STF) luciferase reporter gene assay; format: cell-based; settings: Homo sapiens, Wnt3A condition medium
Description: Cellular Reporter Gene Assay to Determine Compound Inhibition of Wnt Signaling Activity
Compound activity in inhibiting Wnt ligand-induced signaling was measured using a Wnt-responsive Super-TOpFlash (STF) luciferase reporter gene assay in HEK293 cells. On day 1 of the assay, cells were plated at a density of 8000 cells per well of 384-well plate in 25 μl medium containing 5% fetal bovine serum (FBS). On the second day, […] condition medium (CM) produced from mouse L cells was added to the cells to induce Wnt signaling, followed by addition of 5 μL of compounds each well in 10-point serial dilution. On the third day, the luciferase activity was measured by the Bright-Glo™ Luciferase Assay System following manufacture's protocol (Promega, E2620). The Inhibition was calculated as: (Maximum Wnt-induced signaling−Sample)/(Maximum Wnt-induced signaling−Background)*100. “Maximum Wnt-induced signaling” is the STF signal level induced by 20% Wnt3A CM without compound; and “Background” is the STF signal level without the addition of Wnt3A CM or compound.

[2] = biological target: tankyrase 2 protein PARP domain, TNKS2P (Homo sapiens (Human), UniProt Q9H2K2); assay: TNKS2 autoparsylation assay (LC/MS detection of nicotinamide); settings: read-out: TNKS2 AP IC50, 20 nM enzyme, 250 μM β-NAD+, 60 min
Description: Biochemical Assay to Determine Compound Inhibition of TNKS Enzyme Activity
The autoparsylation activity of the TNKS 1/2 or PARP1/2 enzymes was measured by the liquid chromatography-mass spectrometry (LC/MS) detection of nicotinamide as readout. Compound activity in inhibiting the TNKS and PARP autoparsylation was evaluated by IC50 measurements. […] For the background control wells, 10 μL of the 5× quenching solution per well was added prior to the addition of β-NAD^+. The % Inhibition was calculated as: (Control−Sample)/(Control−Background)*100.

[3] = test system: Non-small lung cancer ABC-1 cells; assay: Cellular proliferation assay (CellTiter-Glo); format: cell-based; settings: Homo sapiens, 72 h; ABC-1 cells, 3 days of compound treatment; read-out: ABC-1 IC50
Description: Cellular Proliferation Assay to Determine Compound Inhibition of Cancer Cell Growth
Viable cells were measured after 3 days of compound treatment using the CellTiter-Glo assay (Promega, G7570). Assay was performed following the manufacture protocol.

[4] = test system: Axin2 protein in SW480 cells; assay: Cellular ELISA assay of Axin2 protein stabilization; format: cell-based; settings: Homo sapiens, 24 hrs, read-out: Axin AC50
Description: Cellular ELISA Assay to Determine Compound Effect on Stabilizing the Axin2 Protein Compound activity in stabilizing the Axin2 protein was measured by Sandwich Enzyme-Linked Immuosorbent (ELISA) assay in the colorectal cell line SW480. 30,000 SW480 cells were seeded per well in 96-well plate and incubated overnight prior to compound treatment. […] Cells were then washed with 100 μL of cold Phosphate Buffer Saline (PBS), and lysed in 125 μl of cold 1× lysis buffer (Cell Signaling Technology, 9803) supplemented with Protease inhibitor (Roche, 11836170) and Phosphatase inhibitors (Sigma, P2850, P5726). For the ELISA assay, anti Axin-2 capture antibody (Strategic Diagnostics) antibody was diluted to a concentration of 1 μg/ml (1:1000) in Carbonate Coating buffer, pH 9.2 (Sigma, C3041-50CAP). […], of the diluted anti Axin-2 capture antibody per well was then used to coat the 96-well ELISA plate (Thermo Electron Corp., MicroLite 1 flat bottom plate #7571) overnight at 4° C. […] After blocking, plates were then washed three times with 300 μl/well of wash solution. 100 μL of prepared SW480 cell lysate was then added to each well and incubated at room temperature for 2 hours while shaking gently. After washing, 100 μL of Biotinylated anti-Axin2 antibody (CST, 2151) was added to each well and incubated room temperature for 2 hours. 100 μL of Streptavidin-HRP (R&D systems, DY998) diluted 1:200 in 1% BSA/PBS was then added in each well and incubate for 30 mins at R/T in the dark.

[5] = biological target: human tankyrase 1 PARP catalytic domain, TNKS1P (Homo sapiens (Human), UniProt O95271); assay: TNKS1 autoparsylation assay (LC/MS detection of nicotinamide); settings: read-out: TNKS1 AP IC50, 20 nM enzyme, 250 μM β-NAD+, 60 min
Sequence of human tankyrase 1 PARP catalytic domain, TNKS1P (O95271 1112-1317): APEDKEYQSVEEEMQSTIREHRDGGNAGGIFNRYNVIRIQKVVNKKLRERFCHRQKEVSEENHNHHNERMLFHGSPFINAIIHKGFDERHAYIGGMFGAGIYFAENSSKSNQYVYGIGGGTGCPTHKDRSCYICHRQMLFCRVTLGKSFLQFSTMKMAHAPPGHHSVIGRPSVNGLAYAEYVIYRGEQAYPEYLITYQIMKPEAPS

Sequence of tankyrase 2 protein PARP domain, TNKS2P (Q9H2K2 959-1164): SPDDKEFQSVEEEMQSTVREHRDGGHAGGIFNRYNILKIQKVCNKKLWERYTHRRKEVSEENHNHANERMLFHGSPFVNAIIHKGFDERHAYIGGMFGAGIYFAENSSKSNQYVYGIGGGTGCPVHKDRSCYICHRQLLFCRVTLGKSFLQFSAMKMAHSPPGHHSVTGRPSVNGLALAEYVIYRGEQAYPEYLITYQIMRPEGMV

| SMILES | IC50 [1] | IC50 [2] | IC50 [3] | AC50 [4] | IC50 [5] |
| --- | --- | --- | --- | --- | --- |
| COc1ccc2c(c1)CC1(CCN(CC(=O)N(Cc3nc4c(c(=O)[nH]3)COCC4)CC(F)F)CC1)C2=O [Example 64, N-(2,2-Difluoro-ethyl)-2-(5-methoxy-1-oxo-1,3-dihydrospiro[indene-2,4′-piperidine]-1′-yl)-N-((4-oxo-4,5,7,8-tetrahydro-3H-pyrano[4,3-d]pyrimidin-2-yl)methyl)acetamide] | 0.0012 ± 0.0005 µM | 0.0025 ± 0.0007 µM | 0.012 µM | 0.009 ± 0.003 µM | 0.01 ± 0.0014 µM |
| O=C(CN1CCC2(CCc3ccccc3C2=O)CC1)NCc1nc2c(c(=O)[nH]1)COCC2 [Example 65, 2-(1-oxo-3,4-dihydro-1H-spiro[naphthalene-2,4′-piperidine]-1′-yl)-N-((4-oxo-4,5,7,8-tetrahydro-3H-pyrano[4,3-d]pyrimidin-2-yl)methyl)acetamide] | 0.0007 ± 0.0002 µM | 0.76 ± 0.015 µM | 0.026 µM | 0.012 ± 0.003 µM | 3.1 ± 0.4 µM |
| COc1ccc2c(c1)CC1(CCN(CC(=O)N(Cc3nc4c(c(=O)[nH]3)COCC4)CC3CC3)CC1)C2=O [Example 63, N-(Cyclopropylmethyl)-2-(5-methoxy-1-oxo-1,3-dihydrospiro[indene-2,4′-piperidine]-1′-yl)-N-((4-oxo-4,5,7,8-tetrahydro-3H-pyrano[4,3-d]pyrimidin-2-yl)methyl)acetamide] | 0.0119 ± 0.0031 µM | 0.001 ± 0.0014 µM | 0.158 µM | 0.137 ± 0.031 µM | 0.01 ± 0.0014 µM |
| O=C(CN1CCC(c2nnc(-c3ccccc3)o2)CC1)NCc1nc2c(c(=O)[nH]1)COCC2 [Example 52, N-(4-Oxo-3,5,7,8-tetrahydro-4H-pyrano[4,3-d]pyrimidin-2-ylmethyl)-2-[4-(5-phenyl-[1,3,4]oxadiazol-2-yl)-piperidin-1-yl]-acetamide] | 0.155 ± 0.008 µM | 0.17 ± 0.03 µM | 2.8 µM | 1.09 ± 0.17 µM | 1.19 ± 0.15 µM |
| COc1ccc(C(=O)C2CCN(CC(=O)NCc3cc4c(c(=O)o3)COCC4)CC2)cc1 [Example 96, 2-[4-(4-methoxy-benzoyl)-piperidin-1-yl]-N-(1-oxo-5,8-dihydro-1H,6H-pyrano[3,4-c]pyran-3-ylmethyl)-acetamide] | 0.013 ± 0.003 µM | 0.133 ± 0.031 µM | 0.065 ± 0.023 µM | 0.024 ± 0.008 µM | 0.328 ± 0.001 µM |
| O=C(c1ccccc1)C1CCN(CC(=O)N(Cc2nc3c(c(=O)[nH]2)COCC3)CC(F)F)CC1 [Example 68, 2-(4-Benzoyl-piperidin-1-yl)-N-(2,2-difluoro-ethyl)-N-(4-oxo-3,5,7,8-tetrahydro-4H-pyrano[4,3-d]pyrimidin-2-ylmethyl)-acetamide] | 0.0052 ± 0.0008 µM | 0.005 ± 0.001 µM | 0.075 µM | 0.041 ± 0.007 µM | 0.031 ± 0.001 µM |
| O=C(CN1CCC(c2nnc(-c3ccc(F)cc3)o2)CC1)NCc1nc2c(c(=O)[nH]1)COCC2 [Example 55, 2-{4-[5-(4-Fluoro-phenyl)-[1,3,4]oxadiazol-2-yl]piperidin-1-yl}-N-(4-oxo-3,5,7,8-tetrahydro-4H-pyrano[4,3-d]pyrimidin-2-ylmethyl)-acetamide] | 0.0047 ± 0.0018 µM | 0.078 ± 0.004 µM | 0.083 µM | 0.025 ± 0.005 µM | 0.487 ± 0.016 µM |
| COc1ccc(C(=O)C2CCN(CC(=O)NCc3nc4c(c(=O)[nH]3)COCC4)CC2)cc1OC [Example 90, 2-[4-(3,4-Dimethoxy-benzoyl)-piperidin-1-yl]-N-(4-oxo-3,5,7,8-tetrahydro-4H-pyrano[4,3-c]pyrimidin-2-ylmethyl)-acetamide] | 0.0103 ± 0.0008 µM | 0.018 µM | 0.038 µM | 0.02 ± 0.005 µM | 0.042 ± 0.002 µM |
| COc1ccc(C(=O)C2CCN(CC(=O)NCc3nc4c(c(=O)[nH]3)CCCCC4)CC2)cc1 [Example 6, 2-(4-(4-Methoxybenzoyl)piperidin-1-yl)-N-((4-oxo-4,5,6,7,8,9-hexahydro-3H-cyclohepta[d]pyrimidin-2-yl)methyl)acetamide] | 0.056 ± 0.007 µM | 0.353 ± 0.008 µM | 0.484 µM | 0.293 ± 0.008 µM | 0.575 ± 0.025 µM |
| COc1ccc(C(=O)C2CCN(CC(=O)NCc3nc4c(c(=O)[nH]3)COCC4)CC2)cc1Cl [Example 94, 2-[4-(3-Chloro-4-methoxy-benzoyl)-piperidin-1-yl]-N-(4-oxo-3,5,7,8-tetrahydro-4H-pyrano[4,3-d]pyrimidin-2-ylmethyl)-acetamide] | 0.0024 ± 0.0003 µM | 0.0105 ± 0.0007 µM | 0.016 µM | 0.011 ± 0.002 µM | 0.029 ± 0.003 µM |
| CC(c1nc2c(c(=O)[nH]1)COCC2)N(C)C(=O)CN1CCC(C(=O)c2ccc(F)cc2)CC1 (centres unmarked) [Example 98, 2-(4-(4-Fluorobenzoyl)piperidin-1-yl)-N-methyl-N-(1-(4-oxo-4,5,7,8-tetrahydro-3H-pyrano[4,3-d]pyrimidin-2-yl)ethyl)acetamide] | 0.017 ± 0.008 µM | 0.723 ± 0.01 µM | 0.258 µM | 0.072 ± 0.015 µM | 4.1 ± 0.5 µM |
| O=C(CN1CCC2(CC1)Cc1cc(F)ccc1C2=O)N(Cc1nc2c(c(=O)[nH]1)COCC2)CC1CC1 [Example 62, N-(Cyclopropylmethyl)-2-(5-fluoro-1-oxo-1,3-dihydrospiro[indene-2,4′-piperidine]-1′-yl)-N-((4-oxo-4,5,7,8-tetrahydro-3H-pyrano[4,3-d]pyrimidin-2-yl)methyl)acetamide] | 0.115 ± 0.017 µM | 0.004 ± 0.001 µM | 0.47 µM | 0.56 ± 0.15 µM | 0.017 ± 0.001 µM |
| O=C(c1ccc(OCc2ccccc2)cc1)C1CCN(CC(=O)N(Cc2nc3c(c(=O)[nH]2)COCC3)CC2CC2)CC1 [Example 77] | 0.055 ± 0.008 µM | 0.764 ± 0.051 µM | 2.71 µM | 4.48 ± 0.09 µM | 1.17 ± 0.05 µM |
| O=C(c1ccccn1)C1CCN(CC(=O)N(Cc2nc3c(c(=O)[nH]2)COCC3)CC2CC2)CC1 [Example 76, N-Cyclopropylmethyl-N-(4-oxo-3,5,7,8-tetrahydro-4H-pyrano[4,3-d]pyrimidin-2-ylmethyl)-2-[4-(pyridine-2-carbonyl)-piperidin-1-yl]-acetamide] | 0.032 ± 0.01 µM | 0.032 ± 0.001 µM | 0.236 µM | 0.176 ± 0.014 µM | 0.105 ± 0.001 µM |
| COCCN(Cc1nc2c(c(=O)[nH]1)COCC2)C(=O)CN1CCC(c2nnc(-c3ccccc3)o2)CC1 [Example 53] | 0.43 ± 0.05 µM | 0.142 ± 0.019 µM | 2.16 µM | 2.1 ± 0.2 µM | 1.13 ± 0.27 µM |
| COc1ccccc1C(=O)C1CCN(CC(=O)N(Cc2nc3c(c(=O)[nH]2)COCC3)CC(F)F)CC1 [Example 72, N-(2,2-Difluoro-ethyl)-2-[4-(2-methoxy-benzoyl)-piperidin-1-yl]-N-(4-oxo-3,5,7,8-tetrahydro-4H-pyrano[4,3-d]pyrimidin-2-ylmethyl)-acetamide] | 0.0087 ± 0.0003 µM | 0.085 ± 0.02 µM | 0.096 µM | 0.052 ± 0.028 µM | 0.42 ± 0.11 µM |
| O=C(c1ccc(F)cc1)C1CCN(CC(=O)N(Cc2nc3c(c(=O)[nH]2)COCC3)Cc2cccs2)CC1 [Example 13, 2-(4-(4-Fluorobenzoyl)piperidin-1-yl)-N-((4-oxo-4,5,7,8-tetrahydro-3H-pyrano[4,3-d]pyrimidin-2-yl)methyl)-N-(thiophen-2-ylmethyl)acetamide] |  |  | 0.04 µM | 0.026 ± 0.008 µM | 0.0154 ± 0.0023 µM |
